Source: ChEMBL document CHEMBL1201862, “PubChem BioAssay data set” (2004)
The source made the active and inactive calls.

Tests used:
Candida albicans [1] = assay: fluconazole resistance reversal in C. albicans, dose response, CaCi-2 strain, Alamar Blue, dry powder, set 4 (AID 488943); type: functional, organism-based
Candida albicans [2] = assay: growth inhibition of resistant C. albicans, dose response, CaCi-8 strain, fluconazole, dry powder, set 4 (AID 488950); type: functional, organism-based
[3] = molecular target: T1, Sentrin-specific protease 6 (Homo sapiens, UniProt Q9GZR1); assay: SAR Analysis of small molecule inhibitors of Sentrin-specific protease 6 (SENP6) using a Luminescent assay. [Related pubchem assays (depositor defined):AID2582, AID2599]; type: functional
T1 sequence (Q9GZR1 whole entry): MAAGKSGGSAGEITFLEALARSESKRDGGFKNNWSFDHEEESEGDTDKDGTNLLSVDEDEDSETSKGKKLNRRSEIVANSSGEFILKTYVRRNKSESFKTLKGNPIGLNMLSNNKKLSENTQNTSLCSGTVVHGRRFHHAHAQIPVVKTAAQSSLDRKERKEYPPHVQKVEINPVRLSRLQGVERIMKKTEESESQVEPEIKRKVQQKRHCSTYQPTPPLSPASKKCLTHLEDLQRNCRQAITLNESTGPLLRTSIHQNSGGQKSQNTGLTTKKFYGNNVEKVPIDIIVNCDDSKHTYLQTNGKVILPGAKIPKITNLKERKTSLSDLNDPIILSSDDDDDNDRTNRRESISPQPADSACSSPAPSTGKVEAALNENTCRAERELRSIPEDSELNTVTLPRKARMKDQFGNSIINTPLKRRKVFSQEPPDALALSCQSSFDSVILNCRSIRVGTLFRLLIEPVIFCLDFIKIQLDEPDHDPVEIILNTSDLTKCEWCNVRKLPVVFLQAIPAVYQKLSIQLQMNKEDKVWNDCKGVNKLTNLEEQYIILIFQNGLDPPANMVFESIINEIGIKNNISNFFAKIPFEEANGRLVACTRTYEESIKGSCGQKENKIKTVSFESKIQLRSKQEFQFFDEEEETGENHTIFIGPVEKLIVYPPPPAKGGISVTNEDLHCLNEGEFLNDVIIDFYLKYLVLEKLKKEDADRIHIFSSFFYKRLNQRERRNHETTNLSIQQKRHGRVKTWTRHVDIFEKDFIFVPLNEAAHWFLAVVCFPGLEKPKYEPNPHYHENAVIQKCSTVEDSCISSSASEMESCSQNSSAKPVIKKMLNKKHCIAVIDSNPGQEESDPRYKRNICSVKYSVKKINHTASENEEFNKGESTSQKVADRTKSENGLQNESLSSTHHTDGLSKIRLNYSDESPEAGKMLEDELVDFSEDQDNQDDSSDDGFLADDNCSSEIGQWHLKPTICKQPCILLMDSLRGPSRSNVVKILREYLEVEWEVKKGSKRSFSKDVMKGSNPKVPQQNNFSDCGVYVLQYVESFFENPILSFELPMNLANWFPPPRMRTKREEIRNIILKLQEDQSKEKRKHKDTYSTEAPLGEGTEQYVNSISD

[4] = molecular target: T2, Sentrin-specific protease 7 (Homo sapiens, UniProt Q9BQF6); assay: SENP7 protease inhibitors, SAR follow-up, biochemical, luminescence (AID 504497); type: functional
T2 sequence (Q9BQF6 whole entry): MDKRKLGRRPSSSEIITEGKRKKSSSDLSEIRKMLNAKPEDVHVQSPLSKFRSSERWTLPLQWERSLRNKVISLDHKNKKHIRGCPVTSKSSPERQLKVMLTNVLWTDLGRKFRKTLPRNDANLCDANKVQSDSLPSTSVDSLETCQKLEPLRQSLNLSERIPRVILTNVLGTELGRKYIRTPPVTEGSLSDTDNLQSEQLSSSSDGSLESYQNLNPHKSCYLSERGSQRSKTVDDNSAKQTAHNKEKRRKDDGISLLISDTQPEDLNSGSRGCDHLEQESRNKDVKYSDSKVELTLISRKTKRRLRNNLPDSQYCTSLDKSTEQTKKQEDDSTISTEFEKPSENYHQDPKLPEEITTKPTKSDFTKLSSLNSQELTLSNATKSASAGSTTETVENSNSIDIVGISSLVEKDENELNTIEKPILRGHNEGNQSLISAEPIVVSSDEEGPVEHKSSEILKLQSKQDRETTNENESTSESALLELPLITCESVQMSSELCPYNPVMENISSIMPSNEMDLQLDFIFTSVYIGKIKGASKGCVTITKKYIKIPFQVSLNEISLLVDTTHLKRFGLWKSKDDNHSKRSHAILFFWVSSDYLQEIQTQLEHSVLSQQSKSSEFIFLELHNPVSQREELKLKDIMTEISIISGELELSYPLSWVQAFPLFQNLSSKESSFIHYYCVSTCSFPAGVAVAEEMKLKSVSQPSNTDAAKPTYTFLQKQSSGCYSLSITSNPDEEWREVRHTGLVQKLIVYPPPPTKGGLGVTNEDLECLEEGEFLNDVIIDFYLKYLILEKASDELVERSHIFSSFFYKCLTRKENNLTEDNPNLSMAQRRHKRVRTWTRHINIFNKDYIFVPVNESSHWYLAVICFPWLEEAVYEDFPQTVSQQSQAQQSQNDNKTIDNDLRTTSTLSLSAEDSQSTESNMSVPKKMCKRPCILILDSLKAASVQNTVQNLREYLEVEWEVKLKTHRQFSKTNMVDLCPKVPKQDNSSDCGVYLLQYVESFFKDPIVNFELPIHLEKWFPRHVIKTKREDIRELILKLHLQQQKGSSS

Caspase-3 = molecular target: T3, Caspase-3 (Homo sapiens, UniProt P42574); assay: SAR Analysis of small molecule inhibitors of Sentrin-specific proteases (SENPs) using a Caspase-3 Selectivity assay. [Related pubchem assays (depositor defined):AID2540, AID2599, AID434973, AID489001]; type: functional
T3 sequence (P42574 whole entry): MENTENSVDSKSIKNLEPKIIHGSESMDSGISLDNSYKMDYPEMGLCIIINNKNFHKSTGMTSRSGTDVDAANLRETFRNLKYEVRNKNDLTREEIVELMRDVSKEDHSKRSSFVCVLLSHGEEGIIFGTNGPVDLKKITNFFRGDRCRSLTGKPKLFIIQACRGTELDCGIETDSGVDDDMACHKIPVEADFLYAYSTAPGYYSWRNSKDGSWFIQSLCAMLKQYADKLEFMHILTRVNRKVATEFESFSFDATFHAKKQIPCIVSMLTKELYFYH

[5] = molecular target: T4, Sentrin-specific protease 8 (Homo sapiens, UniProt Q96LD8); assay: SENP8 protease inhibitors, SAR follow-up, biochemical, luminescence (AID 504501); type: functional
T4 sequence (Q96LD8 whole entry): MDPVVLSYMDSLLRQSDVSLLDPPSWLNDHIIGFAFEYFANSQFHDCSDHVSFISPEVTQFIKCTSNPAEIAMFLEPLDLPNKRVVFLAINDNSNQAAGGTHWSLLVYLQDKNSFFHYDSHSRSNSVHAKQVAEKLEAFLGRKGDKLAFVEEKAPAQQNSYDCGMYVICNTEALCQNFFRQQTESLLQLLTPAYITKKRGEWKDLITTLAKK

Phospholipase A2 = Phospholipase A2 (Homo sapiens, UniProt P04054); type: functional;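 also: confirmatory dose-response counterscreen on phospholipase A2, testing hits that came from an ultra-high-throughput screen for ATG4B inhibitors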
Phospholipase A2, sequence (P04054 whole entry): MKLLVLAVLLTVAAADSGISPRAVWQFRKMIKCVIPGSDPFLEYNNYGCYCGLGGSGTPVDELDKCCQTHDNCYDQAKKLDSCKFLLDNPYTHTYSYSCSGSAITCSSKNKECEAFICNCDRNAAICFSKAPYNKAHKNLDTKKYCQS

Streptokinase A = molecular target: T5, Streptokinase A (Streptococcus pyogenes serotype M1, UniProt P10520); assay: S. pyogenes streptokinase expression inhibitors, potency, dose response, plasminogen activation absorbance, OD405 (AID 1914); type: functional, Streptococcus pyogenes M1 GAS;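 also: secreted streptokinase activity via plasminogen activation per viability signal from cell pellet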
T5 sequence (P10520 whole entry): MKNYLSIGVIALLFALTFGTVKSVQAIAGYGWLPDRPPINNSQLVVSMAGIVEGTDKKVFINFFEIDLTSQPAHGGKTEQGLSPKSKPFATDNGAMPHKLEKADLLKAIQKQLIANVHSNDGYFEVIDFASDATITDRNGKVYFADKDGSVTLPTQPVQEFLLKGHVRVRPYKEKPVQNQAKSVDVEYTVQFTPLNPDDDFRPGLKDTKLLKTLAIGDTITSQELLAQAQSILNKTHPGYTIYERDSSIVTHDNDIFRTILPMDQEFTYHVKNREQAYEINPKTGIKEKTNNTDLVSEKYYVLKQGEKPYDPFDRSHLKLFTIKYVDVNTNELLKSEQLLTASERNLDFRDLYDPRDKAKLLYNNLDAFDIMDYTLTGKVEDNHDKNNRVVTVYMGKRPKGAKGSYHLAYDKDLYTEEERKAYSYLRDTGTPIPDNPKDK

Cysteine protease ATG4B = molecular target: T6, Cysteine protease ATG4B (Homo sapiens, UniProt Q9Y4P1); type: functional;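 also: Fluorescence-based dose-response confirmation assay measuring inhibition of ATG4B activity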
T6 sequence (Q9Y4P1 whole entry): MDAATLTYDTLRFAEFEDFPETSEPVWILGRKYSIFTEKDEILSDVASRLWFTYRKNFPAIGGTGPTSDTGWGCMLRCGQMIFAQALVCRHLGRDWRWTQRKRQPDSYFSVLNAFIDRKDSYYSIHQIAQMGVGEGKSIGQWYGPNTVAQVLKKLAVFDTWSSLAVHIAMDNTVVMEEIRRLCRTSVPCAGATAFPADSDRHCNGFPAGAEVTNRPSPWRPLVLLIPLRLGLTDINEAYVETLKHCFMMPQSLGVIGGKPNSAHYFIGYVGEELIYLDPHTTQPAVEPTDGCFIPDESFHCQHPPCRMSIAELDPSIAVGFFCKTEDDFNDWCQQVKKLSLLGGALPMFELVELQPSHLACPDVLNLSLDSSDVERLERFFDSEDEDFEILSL

[6] = tested on: Streptococcus sp. 'group A'; assay: growth inhibition of control SK(-) GAS strain, dose response, counter-screen for streptokinase expression inhibitor project, luminescence, kanamycin, BacTiterGlo, confirmation (AID 1900); type: functional, organism-based
Streptococcus = assay: Group A Streptococcus viability loss, dose response, counter-screen for streptokinase expression inhibitor project, luminescence, BacTiterGlo (AID 1915); type: functional, organism-based;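 also: potency for reduction of bacterial viability or growth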
Fatty acid synthase [7] = molecular target: T7, Fatty acid synthase (Homo sapiens, UniProt P49327); assay: FAS thioesterase domain inhibitors, dose response, biochemical, endpoint fluorescence intensity, uHTS hits (AID 624327); type: functional;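 also: fluorescence from hydrolysis of an O-methyl fluorescein acyl ester substrate by the enzyme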
T7 sequence (P49327 whole entry, the tested form may be a part): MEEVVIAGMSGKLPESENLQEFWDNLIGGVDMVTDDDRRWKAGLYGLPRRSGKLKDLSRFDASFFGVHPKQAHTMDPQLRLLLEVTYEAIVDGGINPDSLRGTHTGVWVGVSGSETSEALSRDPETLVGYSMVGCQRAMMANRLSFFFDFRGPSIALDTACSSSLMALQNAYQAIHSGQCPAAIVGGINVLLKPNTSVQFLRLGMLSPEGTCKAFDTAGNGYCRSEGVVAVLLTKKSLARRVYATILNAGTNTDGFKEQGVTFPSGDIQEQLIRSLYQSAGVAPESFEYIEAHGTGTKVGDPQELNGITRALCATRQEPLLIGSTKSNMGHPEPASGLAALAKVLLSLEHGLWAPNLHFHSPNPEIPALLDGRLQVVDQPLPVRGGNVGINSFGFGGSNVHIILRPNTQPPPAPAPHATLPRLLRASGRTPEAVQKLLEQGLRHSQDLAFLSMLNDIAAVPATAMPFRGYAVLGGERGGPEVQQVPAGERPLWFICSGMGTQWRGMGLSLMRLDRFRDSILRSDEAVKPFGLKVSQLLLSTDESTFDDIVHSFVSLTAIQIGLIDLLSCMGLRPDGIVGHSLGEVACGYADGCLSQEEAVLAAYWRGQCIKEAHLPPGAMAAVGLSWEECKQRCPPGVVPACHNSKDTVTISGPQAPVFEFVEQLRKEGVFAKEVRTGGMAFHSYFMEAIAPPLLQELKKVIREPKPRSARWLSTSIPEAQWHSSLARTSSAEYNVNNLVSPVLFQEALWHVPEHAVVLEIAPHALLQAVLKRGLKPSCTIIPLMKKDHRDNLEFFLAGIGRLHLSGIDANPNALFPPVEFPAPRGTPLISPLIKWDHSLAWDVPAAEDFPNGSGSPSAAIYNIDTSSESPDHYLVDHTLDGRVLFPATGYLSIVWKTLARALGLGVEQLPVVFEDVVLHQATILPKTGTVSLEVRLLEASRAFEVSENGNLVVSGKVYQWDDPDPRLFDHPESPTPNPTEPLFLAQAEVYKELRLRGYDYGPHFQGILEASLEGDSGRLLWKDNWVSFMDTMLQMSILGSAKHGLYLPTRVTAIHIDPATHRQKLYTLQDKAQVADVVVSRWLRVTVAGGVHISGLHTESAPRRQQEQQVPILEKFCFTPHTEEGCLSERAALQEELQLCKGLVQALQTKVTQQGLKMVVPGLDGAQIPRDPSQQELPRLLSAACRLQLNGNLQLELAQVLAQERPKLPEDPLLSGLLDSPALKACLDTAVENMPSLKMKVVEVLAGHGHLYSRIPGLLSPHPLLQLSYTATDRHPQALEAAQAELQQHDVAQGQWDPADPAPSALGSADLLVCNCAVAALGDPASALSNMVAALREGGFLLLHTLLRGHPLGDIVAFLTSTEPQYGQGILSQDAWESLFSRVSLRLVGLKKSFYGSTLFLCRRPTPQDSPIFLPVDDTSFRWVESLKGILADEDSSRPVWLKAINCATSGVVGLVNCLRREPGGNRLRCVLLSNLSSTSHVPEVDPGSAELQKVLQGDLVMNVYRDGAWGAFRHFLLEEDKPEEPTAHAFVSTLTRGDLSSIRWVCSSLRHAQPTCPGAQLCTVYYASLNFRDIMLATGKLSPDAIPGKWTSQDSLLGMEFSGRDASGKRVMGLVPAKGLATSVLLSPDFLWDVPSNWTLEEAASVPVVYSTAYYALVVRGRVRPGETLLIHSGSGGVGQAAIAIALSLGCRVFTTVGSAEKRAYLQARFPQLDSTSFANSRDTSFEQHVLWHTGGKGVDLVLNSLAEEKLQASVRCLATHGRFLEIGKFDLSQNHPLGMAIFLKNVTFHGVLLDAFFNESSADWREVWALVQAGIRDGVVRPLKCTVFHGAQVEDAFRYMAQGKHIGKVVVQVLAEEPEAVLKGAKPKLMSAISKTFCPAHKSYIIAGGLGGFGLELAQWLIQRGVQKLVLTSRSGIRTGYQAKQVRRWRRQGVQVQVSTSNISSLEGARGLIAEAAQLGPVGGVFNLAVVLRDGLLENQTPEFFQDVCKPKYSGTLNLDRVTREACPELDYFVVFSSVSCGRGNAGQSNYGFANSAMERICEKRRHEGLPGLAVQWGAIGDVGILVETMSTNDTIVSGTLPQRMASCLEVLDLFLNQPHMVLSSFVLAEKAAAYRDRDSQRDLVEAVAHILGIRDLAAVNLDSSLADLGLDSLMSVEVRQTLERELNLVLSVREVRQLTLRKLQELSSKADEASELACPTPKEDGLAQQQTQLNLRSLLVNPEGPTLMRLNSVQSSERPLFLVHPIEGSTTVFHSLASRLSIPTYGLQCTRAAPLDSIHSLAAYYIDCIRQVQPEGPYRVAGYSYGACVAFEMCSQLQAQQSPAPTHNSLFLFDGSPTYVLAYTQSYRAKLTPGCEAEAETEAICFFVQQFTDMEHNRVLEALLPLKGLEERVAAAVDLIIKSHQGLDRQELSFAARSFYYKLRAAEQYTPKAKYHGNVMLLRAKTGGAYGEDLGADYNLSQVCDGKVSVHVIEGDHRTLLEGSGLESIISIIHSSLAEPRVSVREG

Fatty acid synthase [8] = molecular target: T7, Fatty acid synthase; assay: FAS thioesterase domain inhibitors, dose response, biochemical, kinetic fluorescence intensity (AID 624326); type: functional;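 also: rate of fluorescence rise from hydrolysis of a fluorogenic O-methyl fluorescein ester substrate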

Structure (SMILES)	IC50 [3]	IC50 [4]	IC50 (Caspase-3)	IC50 [5]	IC50 (Phospholipase A2)	IC50 (Cysteine protease ATG4B)	also measured
COc1ccc(OC)c2c(C)cc(N3CCN(C(=O)c4ccc(Cl)cc4)CC3)nc12	–	–	–	–	–	–	AC50 (Candida albicans [1]): 9.36 µM (active); AC50 (Candida albicans [2]): 8.32 µM (active)
COC(=O)c1ccc(NC(=O)C(=O)c2c[nH]c3ccccc23)cc1	> 99 µM (inactive)	> 99 µM (inactive)	> 99 µM (inactive)	> 99 µM (inactive)	–	–	–
O=C1NC(=O)/C(=C\c2ccccc2OCc2ccccc2)S1	–	–	–	–	8.29 µM (active)	10.7 µM (active)	EC50 (Streptokinase A): 37.6 µM (active); EC50 [6]: 16.4 µM (active); EC50 (Streptococcus): 88.8 µM (active)
O=C(O)COc1ccccc1C=NNc1ccc([N+](=O)[O-])cc1S(=O)(=O)Nc1ccc(Cl)cc1	–	–	–	–	12.2 µM (active)	10.6 µM (active)	IC50 (Fatty acid synthase [7]): 10.8 µM (active); IC50 (Fatty acid synthase [8]): 12.5 µM (active)
O=C(Nc1ccccc1Cl)c1ccc(OCc2ccccc2)cc1	> 99 µM (inactive)	> 99 µM (inactive)	> 99 µM (inactive)	> 99 µM (inactive)	–	–	–
COc1cc(C(=O)Nc2ccccc2Cl)ccc1OCc1ccc(Cl)cc1	> 99 µM (inactive)	> 99 µM (inactive)	> 99 µM (inactive)	> 99 µM (inactive)	–	–	–
O=C(O/N=C1/CCSc2ccccc21)c1ccccc1	–	–	–	–	13.2 µM (active)	16 µM (active)	–
